Assay results reported in article PMC12505902, “Inhibitors of trehalose-6-phosphate synthase activity in fungal pathogens compromise thermal tolerance pathways” (mBio, 2025).
Read-outs that look alike come from different tables or passages of the source.

Tests used:
Assay type in all cases: cell-based
C. deneoformans (JEC21) = assay: MIC dose-response assay in YPD; details: Cryptococcus deneoformans
Protocol: Fig 4 4456dh inhibits the growth of Candida and Cryptococcus species. Two-fold dose response assays were performed against (A) C. albicans at 42°C and C. auris at 39°C, (B) C. glabrata at 42°C, and (C) C. neoformans, C. deneoformans, and C. gattii at 37°C. 4456dh was administered at the concentrations indicated. Cultures were grown in YPD at the listed temperatures for 48 hours for Candida species and 72 hours for Cryptococcus species. Experimental temperatures reflect the temperatures at which the fungi experience heat stress. Left: relative growth of treated samples was calculated by averaging technical triplicates and normalizing the OD600 of each treated well to the average OD600 of the untreated WT controls, after the absorbance due to the compound was subtracted. The MIC80 values, calculated based on the OD600 values, are indicated in the white text on each heat map. Right: representative spot assays show the ability of cells to grow after exposure to 4456dh and indicate fungicidal activity of 4456dh. […]
(§1) 124 technical replicates. Growth, as determined by a reading of absorbance at 600 nm, was
(§2) 125 normalized to untreated controls and was corrected for the absorbance of 4456dh in the YPD […]
(§3) 129 overnight cultures was quantified by measuring the OD600 and corrected for the background
(§4) 130 absorbance of the medium. Antifungal potency for 4456dh was assessed by minimum inhibitory […]
(§5) 137 replicates. Growth, as determined by a reading of absorbance at 600 nm, was normalized to
(§6) 138 untreated controls and was corrected for the absorbance of 4456dh in the YPD medium. […]
(§7) 139 minimum inhibitory concentration causing 80% growth reduction, or MIC80, was determined based […]
157 Optical density (OD600) was determined with an Infinite PRO plate reader ( Tecan). […]

[1] = system: trehalose content of C. neoformans; assay: Trehalose measurement (colorimetric glucose assay after trehalase); details: 37°C, sublethal dose (0.5 mM 4456dh), P < 0.05; dose-dependent
Protocol: Fig 5 4456dh treatment results in reduced trehalose accumulation and a decrease in Tps1-dependent virulence factors. Trehalose accumulation measurements for C. albicans (A) and C. neoformans (B) cultured at indicated temperatures in the absence or presence of 0.5 mM 4456dh. Trehalose was measured using a colorimetric glucose assay after treatment of cultures with trehalase. Statistical comparisons were done with a one-way analysis of variance (ANOVA) analysis followed by a post hoc Tukey’s test. Error bars represent SE. (C) C. albicans WT strain SC5314 cells were treated with 0.5 mM, 1.0 mM, and 5 mM 4456dh. […] Cells were harvested, stained in India Ink, and analyzed using differential interference contrast imaging. […]
as §1, §2, §3, §4, §5, §6, §7

[2] = system: C. albicans WT strain SC5314; assay: C. albicans filamentation assay (serum-induced); details: YPD plus 10% fetal bovine serum, 37°C, 2 hours; sub-MIC concentration (5 µM as printed)

SMILES: Cn1cc(-c2csc(NC(=O)Cc3ccccn3)n2)cn1 [Compound 4456dh]
- MIC80 (C. deneoformans (JEC21)): > 13000 µM
- MIC80 (C. deneoformans (JEC21); 37°C, YPD, 72 hours, read-out: MIC80): 3000 µM
- MIC80 (C. deneoformans (JEC21); Supplemental Table 5, This publication, read-out: MIC80): 1190 µg/mL
- change in trehalose [1]: significant decrease in trehalose
- filamentation [2]: complete inhibition of filamentation
